Test results: patent publication US12643871B2, “Aryl formamide compound containing chiral sulfur oxide or salt thereof, preparation method, herbicidal composition and use thereof” (Qingdao Kingagroot Chemical Compound Co., Ltd., priority 2019, dated 2026)

Experiments:
Echinochloa crusgali [1] = assay: Weeding effect in post-emergence stage; format: in vivo; conditions: 250 g/ha; 2 leaf stage; 15 days after application; fresh weight control rate
Method in brief: (§1)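 Post-emergence spray, 2-leaf stage; doses 500–15 g/ha; acetone + Tween 80 + methyl oleate EC (1.5 L/ha) as synergist. Greenhouse 15 d. Readout: fresh weight control rate graded levels 0–5 (5 = above 85%, 0 = below 5%); triplicate means.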

Amaranthus retroflexus = assay: Weeding effect in post-emergence stage; format: in vivo; conditions: 250 g/ha; 2 leaf stage; 15 days after application; fresh weight control rate
Method in brief: as §1

Setaria viridis = assay: Weeding effect in post-emergence stage; format: in vivo; conditions: 250 g/ha; 2 leaf stage; 15 days after application; fresh weight control rate
Method in brief: as §1

Digitaria sanguinalis = assay: Weeding effect in post-emergence stage; format: in vivo; conditions: 250 g/ha; 2 leaf stage; 15 days after application; fresh weight control rate
Method in brief: as §1

Abutilon theophrasti = assay: Weeding effect in post-emergence stage; format: in vivo; conditions: 250 g/ha; 2 leaf stage; 15 days after application; fresh weight control rate
Method in brief: as §1

Rice = assay: Transplanted rice safety evaluation; format: in vivo, rice (japonica rice/Indica rice); conditions: 60 g/ha; transplanted 3 leaf stage rice, 21 days after treatment
Echinochloa crusgali [2] = assay: Weed control effect evaluation in rice field; format: in vivo; conditions: 60 g/ha; rice field pot, 14 days after treatment; ALS-inhibitor resistant weed from Heilongjiang
Method in brief: (§2)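 Pots of paddy soil sown with weeds under 0.5–1 cm water, then 3–4 cm; WP or SC dilutions dripped at 0.5-leaf stage (Sagittaria tubers at primary-leaf stage). Weeds scored visually 14 days after treatment on 0–5 scale: 5 >85%, 4 60–85%, 3 40–60%, 2 20–40%, 1 5–20%, 0 <5% growth control.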

Sagittaria trifolia = assay: Weed control effect evaluation in rice field; format: in vivo; conditions: 60 g/ha; rice field pot, 14 days after treatment; ALS-inhibitor resistant weed from Heilongjiang
Method in brief: as §2

Leptochloa chinensis = assay: Weed control effect evaluation in rice field; format: in vivo; conditions: 60 g/ha; rice field pot, 14 days after treatment
Method in brief: as §2

Monochoria vaginalis = assay: Weed control effect evaluation in rice field; format: in vivo; conditions: 60 g/ha; rice field pot, 14 days after treatment; ALS-inhibitor resistant weed from Heilongjiang
Method in brief: as §2

CC[S@@+]([O-])c1c(C(F)(F)F)ccc(C(=O)Nc2nnc(C)o2)c1SC [Compound 548]
weeding effect in post-emergence stage, activity level (growth control rate), Echinochloa crusgali (Echinochloa crusgali [1]): 5 (Level 5: growth control rate is above 85%) | weeding effect in post-emergence stage, activity level (growth control rate), Amaranthus retroflexus (Amaranthus retroflexus): 5 (Level 5: growth control rate is above 85%) | weeding effect in post-emergence stage, activity level (growth control rate), Setaria viridis (Setaria viridis): 5 (Level 5: growth control rate is above 85%) | weeding effect in post-emergence stage, activity level (growth control rate), Digitaria sanguinalis (Digitaria sanguinalis): 5 (Level 5: growth control rate is above 85%) | weeding effect in post-emergence stage, activity level (growth control rate), Abutilon theophrasti (Abutilon theophrasti): 5 (Level 5: growth control rate is above 85%) | Herbicidal effects of compounds, Rice, 0-5 activity standard level (Rice): 0 (Level 0: growth control rate is less than 5%) | Herbicidal effects of compounds, Echinochloa crusgali, 0-5 activity standard level (Echinochloa crusgali [2]): 5 (Level 5: growth control rate is above 85%) | Herbicidal effects of compounds, Sagittaria trifolia, 0-5 activity standard level (Sagittaria trifolia): 5 (Level 5: growth control rate is above 85%) | Herbicidal effects of compounds, Leptochloa chinensis, 0-5 activity standard level (Leptochloa chinensis): 5 (Level 5: growth control rate is above 85%) | Herbicidal effects of compounds, Monochoria vaginalis, 0-5 activity standard level (Monochoria vaginalis): 5 (Level 5: growth control rate is above 85%)
